Measured values taken from US11572399B2, “Long-acting GIP peptide analogues” (University of Copenhagen, priority 2017, dated 2023).
Peptide text beside a SMILES is read from it. * marks the point of attachment. C16 diacid = O=C(O)CCCCCCCCCCCCCCC(=O)*

Tests used:
human GIP receptor [1] = target: T1, human GIP receptor (Homo sapiens, UniProt P48546); experiment: cAMP accumulation assay, antagonism of a GIP-mediated cAMP response (50-80% of max); assay type: cell-based; conditions: transiently transfected COS-7 cells; Table 1 and text; read-out: cAMP antagonism nM (IC50, antagonistic potency)
T1 construct: host or cells: COS-7, transient transfection (calcium phosphate), cDNA in pCMV-Script
T1 sequence (P48546 22-466): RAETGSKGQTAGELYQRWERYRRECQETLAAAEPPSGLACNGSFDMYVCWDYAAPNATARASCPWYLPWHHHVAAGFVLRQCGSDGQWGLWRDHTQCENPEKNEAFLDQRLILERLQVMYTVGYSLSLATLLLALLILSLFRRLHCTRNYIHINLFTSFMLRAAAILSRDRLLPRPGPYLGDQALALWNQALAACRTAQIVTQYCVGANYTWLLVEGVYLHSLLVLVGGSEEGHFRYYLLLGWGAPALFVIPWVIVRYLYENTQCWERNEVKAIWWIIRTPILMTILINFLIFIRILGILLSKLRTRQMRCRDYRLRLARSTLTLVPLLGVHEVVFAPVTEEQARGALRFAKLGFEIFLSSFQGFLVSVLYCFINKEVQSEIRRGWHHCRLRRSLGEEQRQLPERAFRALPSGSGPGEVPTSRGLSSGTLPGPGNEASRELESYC
Description: The day after, the cells were washed twice with Hepes buffered saline (HBS) buffer and incubated with HBS and 1 mM 3-isobutyl-1-methylxanthine (IBMX) for 30 min at 37° C. […] The HitHunter™ cAMP XS assay (DiscoveRx) was carried out according to the manufacturer's instructions.

human GIP receptor [2] = target: T1, human GIP receptor; experiment: cAMP accumulation assay, agonism (ligand alone); assay type: cell-based; conditions: COS-7 cells, Table 1; for Emax: COS-7, intrinsic cAMP activity; for cAMP agonism Emax: intrinsic cAMP activity; for EC50: read-out: cAMP agonism nM (EC50)

Row | SMILES | IC50 (human GIP receptor [1]) [nM] | Emax (human GIP receptor [2]) [%] | cAMP agonism Emax (human GIP receptor [2]) | EC50 (human GIP receptor [2]) [nM]
1 | CC[C@H](C)[C@H](NC(=O)[C@H](CO)NC(=O)[C@H](Cc1ccc(O)cc1)NC(=O)[C@H](CC(=O)O)NC(=O)[C@H](CO)NC(=O)[C@@H](NC(=O)[C@H](CCCCNC(=O)CCCCCCCCCCCCCCC(=O)O)NC(=O)[C@@H](NC(=O)CNC(=O)[C@@H](N)CCC(=O)O)[C@@H](C)O)[C@@H](C)CC)C(=O)N[C@@H](C)C(=O)N[C@@H](CCSC)C(=O)N[C@@H](CC(=O)O)C(=O)N[C@@H](CCCCN)C(=O)N[C@H](C(=O)N[C@@H](Cc1c[nH]cn1)C(=O)N[C@@H](CCC(N)=O)C(=O)N[C@@H](CCC(N)=O)C(=O)N[C@@H](CC(=O)O)C(=O)N[C@@H](Cc1ccccc1)C(=O)N[C@H](C(=O)N[C@@H](CC(N)=O)C(=O)N[C@@H](Cc1c[nH]c2ccccc12)C(=O)N[C@@H](CC(C)C)C(=O)N[C@@H](CC(C)C)C(=O)N[C@@H](C)C(=O)N[C@@H](CCC(N)=O)C(=O)N[C@@H](CCCCN)C(N)=O)C(C)C)[C@@H](C)CC [AT297, [hGIP(3-30)NH2[F6K]-C16diacid/6]] | 603 | 19 | – | –
2 | CC[C@H](C)[C@H](NC(=O)[C@H](CO)NC(=O)[C@H](Cc1ccc(O)cc1)NC(=O)[C@H](CC(=O)O)NC(=O)[C@H](CO)NC(=O)[C@H](CCCCNC(=O)CCCCCCCCCCCCCCC(=O)O)NC(=O)[C@H](Cc1ccccc1)NC(=O)[C@@H](NC(=O)CNC(=O)[C@@H](N)CCC(=O)O)[C@@H](C)O)C(=O)N[C@@H](C)C(=O)N[C@@H](CCSC)C(=O)N[C@@H](CC(=O)O)C(=O)N[C@@H](CCCCN)C(=O)N[C@H](C(=O)N[C@@H](Cc1c[nH]cn1)C(=O)N[C@@H](CCC(N)=O)C(=O)N[C@@H](CCC(N)=O)C(=O)N[C@@H](CC(=O)O)C(=O)N[C@@H](Cc1ccccc1)C(=O)N[C@H](C(=O)N[C@@H](CC(N)=O)C(=O)N[C@@H](Cc1c[nH]c2ccccc12)C(=O)N[C@@H](CC(C)C)C(=O)N[C@@H](CC(C)C)C(=O)N[C@@H](C)C(=O)N[C@@H](CCC(N)=O)C(=O)N[C@@H](CCCCN)C(N)=O)C(C)C)[C@@H](C)CC [AT298, [hGIP(3-30)NH2[I7K]-C16diacid/7]] | 33 | – | no ag. | –
3 | CC[C@H](C)[C@H](NC(=O)[C@H](CO)NC(=O)[C@H](Cc1ccc(O)cc1)NC(=O)[C@H](CC(=O)O)NC(=O)[C@H](CCCCNC(=O)CCCCCCCCCCCCCCC(=O)O)NC(=O)[C@@H](NC(=O)[C@H](Cc1ccccc1)NC(=O)[C@@H](NC(=O)CNC(=O)[C@@H](N)CCC(=O)O)[C@@H](C)O)[C@@H](C)CC)C(=O)N[C@@H](C)C(=O)N[C@@H](CCSC)C(=O)N[C@@H](CC(=O)O)C(=O)N[C@@H](CCCCN)C(=O)N[C@H](C(=O)N[C@@H](Cc1c[nH]cn1)C(=O)N[C@@H](CCC(N)=O)C(=O)N[C@@H](CCC(N)=O)C(=O)N[C@@H](CC(=O)O)C(=O)N[C@@H](Cc1ccccc1)C(=O)N[C@H](C(=O)N[C@@H](CC(N)=O)C(=O)N[C@@H](Cc1c[nH]c2ccccc12)C(=O)N[C@@H](CC(C)C)C(=O)N[C@@H](CC(C)C)C(=O)N[C@@H](C)C(=O)N[C@@H](CCC(N)=O)C(=O)N[C@@H](CCCCN)C(N)=O)C(C)C)[C@@H](C)CC [AT299, [hGIP(3-30)NH2[S8K]-C16diacid/8]] (H-EGTFIK(C16 diacid)DYSIAMDKIHQQDFVNWLLAQK-NH2; N-terminus assumed) | 199 | 15.2 | – | 15
4 | CC[C@H](C)[C@H](NC(=O)[C@H](CO)NC(=O)[C@H](Cc1ccc(O)cc1)NC(=O)[C@H](CCCCNC(=O)CCCCCCCCCCCCCCC(=O)O)NC(=O)[C@H](CO)NC(=O)[C@@H](NC(=O)[C@H](Cc1ccccc1)NC(=O)[C@@H](NC(=O)CNC(=O)[C@@H](N)CCC(=O)O)[C@@H](C)O)[C@@H](C)CC)C(=O)N[C@@H](C)C(=O)N[C@@H](CCSC)C(=O)N[C@@H](CC(=O)O)C(=O)N[C@@H](CCCCN)C(=O)N[C@H](C(=O)N[C@@H](Cc1c[nH]cn1)C(=O)N[C@@H](CCC(N)=O)C(=O)N[C@@H](CCC(N)=O)C(=O)N[C@@H](CC(=O)O)C(=O)N[C@@H](Cc1ccccc1)C(=O)N[C@H](C(=O)N[C@@H](CC(N)=O)C(=O)N[C@@H](Cc1c[nH]c2ccccc12)C(=O)N[C@@H](CC(C)C)C(=O)N[C@@H](CC(C)C)C(=O)N[C@@H](C)C(=O)N[C@@H](CCC(N)=O)C(=O)N[C@@H](CCCCN)C(N)=O)C(C)C)[C@@H](C)CC [AT300, [hGIP(3-30)NH2[D9K]-C16diacid/9]] (H-EGTFISK(C16 diacid)YSIAMDKIHQQDFVNWLLAQK-NH2; N-terminus assumed) | 22 | – | no ag. | –
5 | CC[C@H](C)[C@H](NC(=O)[C@H](CCCCN)NC(=O)[C@H](CC(=O)O)NC(=O)[C@H](CCSC)NC(=O)[C@H](CCCCNC(=O)CCCCCCCCCCCCCCC(=O)O)NC(=O)[C@@H](NC(=O)[C@H](CO)NC(=O)[C@H](Cc1ccc(O)cc1)NC(=O)[C@H](CC(=O)O)NC(=O)[C@H](CO)NC(=O)[C@@H](NC(=O)[C@H](Cc1ccccc1)NC(=O)[C@@H](NC(=O)CNC(=O)[C@@H](N)CCC(=O)O)[C@@H](C)O)[C@@H](C)CC)[C@@H](C)CC)C(=O)N[C@@H](Cc1c[nH]cn1)C(=O)N[C@@H](CCC(N)=O)C(=O)N[C@@H](CCC(N)=O)C(=O)N[C@@H](CC(=O)O)C(=O)N[C@@H](Cc1ccccc1)C(=O)N[C@H](C(=O)N[C@@H](CC(N)=O)C(=O)N[C@@H](Cc1c[nH]c2ccccc12)C(=O)N[C@@H](CC(C)C)C(=O)N[C@@H](CC(C)C)C(=O)N[C@@H](C)C(=O)N[C@@H](CCC(N)=O)C(=O)N[C@@H](CCCCN)C(N)=O)C(C)C [AT304, [hGIP(3-30)NH2[A13K]-C16diacid/13]] (H-EGTFISDYSIK(C16 diacid)MDKIHQQDFVNWLLAQK-NH2; N-terminus assumed) | 199 | – | no ag. | –
6 | CC[C@H](C)[C@H](NC(=O)[C@H](CO)NC(=O)[C@H](Cc1ccc(O)cc1)NC(=O)[C@H](CC(=O)O)NC(=O)[C@H](CO)NC(=O)[C@@H](NC(=O)[C@H](Cc1ccccc1)NC(=O)[C@@H](NC(=O)CNC(=O)[C@@H](N)CCC(=O)O)[C@@H](C)O)[C@@H](C)CC)C(=O)N[C@@H](C)C(=O)N[C@@H](CCCCNC(=O)CCCCCCCCCCCCCCC(=O)O)C(=O)N[C@@H](CC(=O)O)C(=O)N[C@@H](CCCCN)C(=O)N[C@H](C(=O)N[C@@H](Cc1c[nH]cn1)C(=O)N[C@@H](CCC(N)=O)C(=O)N[C@@H](CCC(N)=O)C(=O)N[C@@H](CC(=O)O)C(=O)N[C@@H](Cc1ccccc1)C(=O)N[C@H](C(=O)N[C@@H](CC(N)=O)C(=O)N[C@@H](Cc1c[nH]c2ccccc12)C(=O)N[C@@H](CC(C)C)C(=O)N[C@@H](CC(C)C)C(=O)N[C@@H](C)C(=O)N[C@@H](CCC(N)=O)C(=O)N[C@@H](CCCCN)C(N)=O)C(C)C)[C@@H](C)CC [AT305, [hGIP(3-30)NH2[M14K]-C16diacid/14]] (H-EGTFISDYSIAK(C16 diacid)DKIHQQDFVNWLLAQK-NH2; N-terminus assumed) | 166 | 12 | – | 8
7 | CC[C@H](C)[C@H](NC(=O)[C@H](CO)NC(=O)[C@H](Cc1ccc(O)cc1)NC(=O)[C@H](CC(=O)O)NC(=O)[C@H](CO)NC(=O)[C@@H](NC(=O)[C@H](Cc1ccccc1)NC(=O)[C@@H](NC(=O)CNC(=O)[C@@H](N)CCC(=O)O)[C@@H](C)O)[C@@H](C)CC)C(=O)N[C@@H](C)C(=O)N[C@@H](CCSC)C(=O)N[C@@H](CCCCNC(=O)CCCCCCCCCCCCCCC(=O)O)C(=O)N[C@@H](CCCCN)C(=O)N[C@H](C(=O)N[C@@H](Cc1c[nH]cn1)C(=O)N[C@@H](CCC(N)=O)C(=O)N[C@@H](CCC(N)=O)C(=O)N[C@@H](CC(=O)O)C(=O)N[C@@H](Cc1ccccc1)C(=O)N[C@H](C(=O)N[C@@H](CC(N)=O)C(=O)N[C@@H](Cc1c[nH]c2ccccc12)C(=O)N[C@@H](CC(C)C)C(=O)N[C@@H](CC(C)C)C(=O)N[C@@H](C)C(=O)N[C@@H](CCC(N)=O)C(=O)N[C@@H](CCCCN)C(N)=O)C(C)C)[C@@H](C)CC [AT306, [hGIP(3-30)NH2[D15K]-C16diacid/15]] (H-EGTFISDYSIAMK(C16 diacid)KIHQQDFVNWLLAQK-NH2; N-terminus assumed) | 53 | 6.6 | – | 13
8 | CC[C@H](C)[C@H](NC(=O)[C@H](CO)NC(=O)[C@H](Cc1ccc(O)cc1)NC(=O)[C@H](CC(=O)O)NC(=O)[C@H](CO)NC(=O)[C@@H](NC(=O)[C@H](Cc1ccccc1)NC(=O)[C@@H](NC(=O)CNC(=O)[C@@H](N)CCC(=O)O)[C@@H](C)O)[C@@H](C)CC)C(=O)N[C@@H](C)C(=O)N[C@@H](CCSC)C(=O)N[C@@H](CC(=O)O)C(=O)N[C@@H](CCCCN)C(=O)N[C@@H](CCCCNC(=O)CCCCCCCCCCCCCCC(=O)O)C(=O)N[C@@H](Cc1c[nH]cn1)C(=O)N[C@@H](CCC(N)=O)C(=O)N[C@@H](CCC(N)=O)C(=O)N[C@@H](CC(=O)O)C(=O)N[C@@H](Cc1ccccc1)C(=O)N[C@H](C(=O)N[C@@H](CC(N)=O)C(=O)N[C@@H](Cc1c[nH]c2ccccc12)C(=O)N[C@@H](CC(C)C)C(=O)N[C@@H](CC(C)C)C(=O)N[C@@H](C)C(=O)N[C@@H](CCC(N)=O)C(=O)N[C@@H](CCCCN)C(N)=O)C(C)C [AT307, [hGIP(3-30)NH2[I17K]-C16diacid/17]] (H-EGTFISDYSIAMDKK(C16 diacid)HQQDFVNWLLAQK-NH2; N-terminus assumed) | 93 | 4.9 | – | 14
